# Test results reported in the RepoRT retention time repository (doi:10.1016/j.foodchem.2012.08.062).
# Assay: RP, Waters ACQUITY UPLC BEH Shield RP18, 150 × 3 mm, 1.7 µm, 40 °C, 0.5 mL/min, estimated dead time 1.4 min; A: water + 0.1% formic acid; B: acetonitrile + 0.1% formic acid; gradient (min/%B) 0/0 9.91/26 18.51/65 18.76/100 20.76/100
# Settings: stereoisomer not certain
row,Compound,LC retention time
1,O=c1cc(-c2ccc(O)c(O)c2)oc2cc(O)cc(O)c12,16.6 min
2,O=C(O)c1ccc(O)c(O)c1,7.05 min
3,O=c1cc(-c2ccc(O)c(O)c2)oc2cc(OC3OC(CO)C(O)C(O)C3O)cc(O)c12 (stereo not given),12.7 min
4,O=c1c(OC2OC(CO)C(O)C(O)C2O)c(-c2ccc(O)cc2)oc2cc(O)cc(O)c12 (stereo not given),13.8 min
5,CCCOC(=O)c1cc(O)c(O)c(O)c1,13.8 min
6,CC1OC(Oc2c(-c3ccc(O)c(O)c3)oc3cc(O)cc(O)c3c2=O)C(O)C(O)C1O (stereo not given),14 min
7,O=c1c(O)c(-c2ccccc2)oc2cc(O)cc(O)c12,20.3 min
8,O=C1c2c(O)cc(O)cc2OC(c2ccc(O)cc2)C1O (stereo not given),14.8 min
9,COc1cc(C=CC(=O)O)ccc1O,12.8 min
10,O=c1c(OC2OC(CO)C(O)C2O)c(-c2ccc(O)c(O)c2)oc2cc(O)cc(O)c12 (stereo not given),13.7 min
11,O=C1CC(c2ccc(O)cc2)Oc2cc(O)cc(O)c21 (stereo not given),17.1 min
12,O=c1c(O)c(-c2ccc(O)c(O)c2)oc2cc(O)cc(O)c12,16.7 min
13,CC1OC(OCC2OC(Oc3c(-c4ccc(O)c(O)c4)oc4cc(O)cc(O)c4c3=O)C(O)C(O)C2O)C(O)C(O)C1O (stereo not given),12.6 min
14,COc1cc(CCC(=O)O)ccc1O,11.3 min
15,O=C(CCc1ccc(O)cc1)c1c(O)cc(O)cc1O,17 min
16,O=C1c2c(O)cc(O)cc2OC(c2ccc(O)c(O)c2)C1O (stereo not given),13.3 min
17,O=c1c(O)c(-c2ccc(O)cc2)oc2cc(O)cc(O)c12,18.4 min
18,COc1cc(C=CC(=O)O)cc(OC)c1O,12.7 min
19,COc1cc(-c2oc3cc(O)cc(O)c3c(=O)c2O)ccc1O,18.1 min
20,CC1OC(OC2C(Oc3cc(O)c4c(c3)OC(c3ccc(O)cc3)CC4=O)OC(CO)C(O)C2O)C(O)C(O)C1O (stereo not given),13 min
21,O=C(O)CCc1ccc(O)c(O)c1,8.65 min
22,O=C(O)c1ccccc1O,14.5 min
23,O=C(O)Cc1ccc(O)cc1,8.61 min
24,O=C(CCc1ccc(O)cc1)c1c(O)cc(O)cc1OC1OC(CO)C(O)C(O)C1O (stereo not given),13.7 min
25,O=C(C=Cc1ccc(O)c(O)c1)OC1CC(O)(C(=O)O)CC(O)C1O (stereo not given),8.3 min
26,O=C(O)C=Cc1ccc(O)cc1,12.7 min
27,O=c1cc(-c2ccc(O)cc2)oc2cc(O)cc(O)c12,18 min
28,O=C(O)c1cc(O)c(O)c(O)c1,4.79 min
29,Oc1cc(O)c2c(c1)OC(c1ccc(O)c(O)c1)C(O)C2c1c(O)cc(O)c2c1OC(c1ccc(O)c(O)c1)C(O)C2 (stereo not given),10.2 min
30,O=c1cc(-c2ccc(O)cc2)oc2cc(OC3OC(CO)C(O)C(O)C3O)cc(O)c12 (stereo not given),13.7 min
